Measured values reported in patent publication US20260055369A1, “METHOD FOR GENERATING CELLS OF THE T CELL LINEAGE WITH ENGINEERING BROADLY REACTIVE HUMAN NOTCH LIGAND” (H. Lee Moffitt Cancer Center and Research Institute, Inc., priority 2022, published 2026).

Assays:
Notch1 [1] = assay: Notch inhibition assay with soluble antagonists and WT DLL4 coated plates (CHO-K1 N1-Gal4); type: cell-based; details: comparison with DAPT and BB-94, plates coated with 50 nM WT DLL4; FIG. 4B; read-out: IC50 for inhibition of Notch1 activation
Experimental: For CHO-K1 N1-Gal4 reporter cells, on day one, biotinylated WT DLL4 was pre-coated in 96-well plates at 50 nM following the same protocol described above. Next, CHO-K1 N1-Gal4 cells were detached with trypsin-EDTA, washed, and diluted at 200,000 cells/mL in α-MEM media. Ten-fold serial dilutions of non-biotinylated DLL4 ligands (N-EGF5) were prepared in DPBS starting at 600 nM. Next, soluble inhibitors were mixed in ratio 1:1 with CHO-K1 N1-Gal4 200,000 cells/mL stocks for 15 min at room temperature to pre-block Notch receptors. Two hundred microliters of inhibition reactions containing 20,000 reporter cells were added to WT DLL4-coated wells, and plates incubated for 24 hours at 37° C. and 5% CO2. When DAPT (gamma-secretase inhibitor, Sigma) and BB-94 (ADAM metalloprotease inhibitor, Sigma) were used, stock solutions were prepared at 100 μM in 8% DMSO. Appropriate DMSO controls were included to test Notch activation and cell viability. Final DMSO concentration in the experiment was kept below 1%. […] On day two, assay plates were washed with 200 μL of DPBS, CHO-K1 N1-Gal4 cells detached with trypsin-EDTA, quenched with 200 μL of α-MEM media, and Notch activation measured by flow cytometry (BD Accuri C6 Plus). […]

Notch1 [2] = assay: Notch inhibition assay in co-culture format (CHO-K1 N1-Gal4 with HEK293T expressing WT DLL4); type: cell-based; details: co-culture 1:1 with HEK293T expressing WT DLL4; read-out: IC50 for inhibition of Notch1 activation by cellular DLL4
Experimental: For inhibition of CHO-K1 N1-Gal4 cells with DAPT and Delta^MAX, the experiment was set-up following the protocol described above with the exception that CHO-K1 N1-Gal4 reporters were incubated with HEK293T-expressing WT DLL4 for Notch activation. Three-fold serial dilutions of soluble Delta^MAX and DAPT were prepared in DPBS starting at 6,000 nM. For DAPT, a stock solution of 100 μM in 8% DMSO was prepared before serial dilutions in DPBS. Appropriate DMSO controls were also assayed for cytotoxicity. Final DMSO concentration in the wells was maintained below 1%. Thirty thousand signal senders and pre-blocked signal receivers (100 μL each) were incubated for 24 hours at 37° C. and 5% CO2 before analysis by flow cytometry. Maximum Notch activation (100%) was set in the absence of soluble inhibitors and normalized to wells containing CHO-K1 N1-Gal4 cells and HEK293T lacking expression of WT DLL4. Mean fluorescence intensity is represented as percentage relative to Notch activation in the absence of inhibitors±s.d. of three independent biological replicates.

| IC50 (Notch1 [1]) [nM] | IC50 (Notch1 [2]) [nM] | SMILES |
| --- | --- | --- |
| 1000 | – | CNC(=O)[C@H](Cc1ccccc1)NC(=O)[C@H](CC(C)C)[C@H](CSc1cccs1)C(=O)NO [BB-94, reference compound] |
| 40 | 100 | C[C@H](NC(=O)Cc1cc(F)cc(F)c1)C(=O)N[C@H](C(=O)OC(C)(C)C)c1ccccc1 [DAPT, reference compound] |
